{
  "source": "patent US20230365627A1",
  "about": "“MACROCYCLIC PEPTIDE BORONATE IMMUNOMODULATORS” (Bristol-Myers Squibb Company, priority 2020, published 2023)",
  "molecular_target": "PD-1/PD-L1 (Homo sapiens (Human), UniProt Q9NZQ7)",
  "sequence (Q9NZQ7 18-239)": "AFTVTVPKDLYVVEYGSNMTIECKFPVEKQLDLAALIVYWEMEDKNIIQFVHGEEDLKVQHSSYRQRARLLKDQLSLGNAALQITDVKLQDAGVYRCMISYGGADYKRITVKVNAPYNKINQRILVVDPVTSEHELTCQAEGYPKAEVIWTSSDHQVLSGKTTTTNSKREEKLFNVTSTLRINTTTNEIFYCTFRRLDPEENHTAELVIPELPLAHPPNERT",
  "assay": "PD-1/PD-L1 Homogenous Time-Resolved Fluorescence (HTRF) binding assay",
  "details": "PD-L1-His 10 nM, PD-1-Ig 20 nM; read-out: HTRF IC50",
  "from_the_text": "Methods for Testing the Ability of Macrocyclic Peptides to Compete for the Binding of PD-1 to PD-L1 Using Homogenous Time-Resolved Fluorescence (HTRF) Binding Assays\nThe ability of the compounds of formula (I) to bind to PD-L1 was investigated using a PD-1/PD-L1 Homogenous Time-Resolved Fluorescence (HTRF) binding assay.\nHomogenous Time-Resolved Fluorescence (HTRF) Binding Assay\nThe interaction of PD-1 and PD-L1 can be assessed using soluble, purified preparations of the extracellular domains of the two proteins. The PD-1 and PD-L1 protein extracellular domains were expressed as fusion proteins with detection tags, for PD-1, the tag was the Fc portion of Immunoglobulin (PD-1-Ig) and for PD-L1 it was the 6 histidine motif (PD-L1-His). All binding studies were performed in an HTRF assay buffer consisting of dPBS supplemented with 0.1% […] bovine serum albumin and 0.05% (v/v) Tween-20. For the h/PD-L1-His binding assay, inhibitors were pre-incubated with PD-L1-His (10 nM final) for 15 m in 4 μl of assay buffer, followed by addition of PD-1-Ig (20 nM final) in 1 μl of assay buffer and further incubation for 15 m. HTRF detection was achieved using europium cryptate-labeled anti-Ig (1 nM final) and allophycocyanin (APC) labeled anti-His (20 nM final). Antibodies were diluted in HTRF detection buffer and 5 μl was dispensed on top of the binding reaction. The reaction mixture was allowed to equilibrate for 30 minutes and the resulting signal (665 nm/620 nm ratio) was obtained using an EnVision fluorometer. Additional binding assays were established between the human proteins PD-1-Ig/PD-L2-His (20 & 5 nM, respectively) and CD80-His/PD-L1-Ig (100 & 10 nM, respectively).\nRecombinant Proteins: Human PD-1 (25-167) with a C-terminal human Fc domain of immunoglobulin G (Ig) epitope tag [hPD-1 (25-167)-3S-IG] and human PD-L1 (18-239) with a C-terminal His epitope tag [hPD-L1(18-239)-TVMV-His] were expressed in HEK293T cells and purified sequentially by ProteinA affinity chromatography and size exclusion chromatography. Human PD-L2-His and CD80-His was obtained through commercial sources.\nTable 1 lists the IC50 values for representative examples of this disclosure measured in the PD-1/PD-L1 Homogenous Time-Resolved Fluorescence (HTRF) binding assay.",
  "note": "*1 amine or outer side, *2 acyl side, *3 side chain or, on linkers, in order; H or OH if unused. Where a SMILES comes first, the peptide text is derived from it. Bridges are numbered along the chain shown (N, C = ends). [ ]: non-standard residue; d: D form. Trp(1-CH2COOH) = N[C@@H](Cc1cn(CC(=O)O)c2ccccc12)C(=O)O; X30 = O=C([C@H](CNCc1ccc(B(O)O)cc1C(F)(F)F)N[*:1])[*:2]; X1 = Cc1cc(CNC[C@H](N[*:1])C(=O)[*:2])cc(C)c1B(O)O; Hyp = O=C(O)[C@@H]1C[C@@H](O)CN1; NMeNle = CCCC[C@H](NC)C(=O)O; NMeA = CN[C@@H](C)C(=O)O; Dab = NCC[C@H](N)C(=O)O",
  "data": [
    {"smiles": "CCCC[C@H]1C(=O)N(C)[C@@H](CCCC)C(=O)N[C@@H](CC(C)C)C(=O)N[C@H](C(=O)NCC(N)=O)CSCC(=O)N[C@@H](Cc2ccc(O)cc2)C(=O)N(C)[C@@H](C)C(=O)N[C@@H](CC(N)=O)C(=O)N2CCC[C@H]2C(=O)N[C@@H](CNCc2ccc(B(O)O)cc2C(F)(F)F)C(=O)N[C@@H](CC(C)C)C(=O)N2C[C@H](O)C[C@H]2C(=O)N[C@@H](Cc2c[nH]c3ccccc23)C(=O)N[C@@H](CCN)C(=O)N[C@@H](Cc2cn(CC(=O)O)c3ccccc23)C(=O)N1C", "note": "[Example 1025] ({CH2CO}-Y[NMeA]NP[X30]L[Hyp]W[Dab][Trp(1-CH2COOH)][NMeNle][NMeNle]LCG-NH2; thioether N-14)", "values": [
      {"measurement": "IC50", "value": 14, "unit": "nM"}
    ]},
    {"smiles": "CCCC[C@H]1C(=O)N(C)[C@@H](CCCC)C(=O)N[C@@H](CC(C)C)C(=O)N[C@H](C(=O)NCC(N)=O)CSCC(=O)N[C@H]2Cc3ccc(cc3)OB(O)c3ccc(cc3F)CNCC[C@@H]3NC(=O)[C@H](Cc4c[nH]c5ccccc45)NC(=O)[C@@H]4C[C@@H](O)CN4C(=O)[C@H](CC(C)C)NC(=O)[C@H](CNCc4ccc(c(F)c4)B(O)OC(=O)Cn4cc(c5ccccc54)C[C@H](NC3=O)C(=O)N1C)NC(=O)[C@@H]1CCCN1C(=O)[C@H](CC(N)=O)NC(=O)[C@H](C)N(C)C2=O", "note": "[Example 1026]", "values": [
      {"measurement": "IC50", "value": 4, "unit": "nM"}
    ]},
    {"smiles": "CCCC[C@H]1C(=O)N(C)[C@@H](CCCC)C(=O)N[C@@H](CC(C)C)C(=O)N[C@H](C(=O)NCC(N)=O)CSCC(=O)N[C@@H](Cc2ccc(O)cc2)C(=O)N(C)[C@@H](C)C(=O)N[C@@H](CC(N)=O)C(=O)N2CCC[C@H]2C(=O)N[C@@H](CNCc2cc(C)c(B(O)O)c(C)c2)C(=O)N[C@@H](CC(C)C)C(=O)N2C[C@H](O)C[C@H]2C(=O)N[C@@H](Cc2c[nH]c3ccccc23)C(=O)N[C@@H](CCN)C(=O)N[C@@H](Cc2cn(CC(=O)O)c3ccccc23)C(=O)N1C", "note": "[Example 1027] ({CH2CO}-Y[NMeA]NP[X1]L[Hyp]W[Dab][Trp(1-CH2COOH)][NMeNle][NMeNle]LCG-NH2; thioether N-14)", "values": [
      {"measurement": "IC50", "value": 3.8, "unit": "nM"}
    ]},
    {"smiles": "CCCC[C@H]1C(=O)N(C)[C@@H](CCCC)C(=O)N[C@@H](CC(C)C)C(=O)N[C@H](C(=O)NCC(N)=O)CSCC(=O)N[C@H]2Cc3ccc(cc3)OB(O)c3ccc(c(F)c3)CNCC[C@@H]3NC(=O)[C@H](Cc4c[nH]c5ccccc45)NC(=O)[C@@H]4C[C@@H](O)CN4C(=O)[C@H](CC(C)C)NC(=O)[C@H](CNCc4ccc(cc4F)B(O)OC(=O)Cn4cc(c5ccccc54)C[C@H](NC3=O)C(=O)N1C)NC(=O)[C@@H]1CCCN1C(=O)[C@H](CC(N)=O)NC(=O)[C@H](C)N(C)C2=O", "note": "[Example 1028]", "values": [
      {"measurement": "IC50", "value": 4.6, "unit": "nM"}
    ]},
    {"smiles": "CCCC[C@H]1C(=O)N(C)[C@@H](CCCC)C(=O)N[C@@H](CC(C)C)C(=O)N[C@H](C(=O)NCC(N)=O)CSCC(=O)N[C@H]2Cc3ccc(cc3)OB(O)c3ccc(c(C(F)(F)F)c3)CNCC[C@@H]3NC(=O)[C@H](Cc4c[nH]c5ccccc45)NC(=O)[C@@H]4C[C@@H](O)CN4C(=O)[C@H](CC(C)C)NC(=O)[C@H](CNCc4ccc(cc4C(F)(F)F)B(O)OC(=O)Cn4cc(c5ccccc54)C[C@H](NC3=O)C(=O)N1C)NC(=O)[C@@H]1CCCN1C(=O)[C@H](CC(N)=O)NC(=O)[C@H](C)N(C)C2=O", "note": "[Example 1030]", "values": [
      {"measurement": "IC50", "value": 11, "unit": "nM"}
    ]},
    {"smiles": "CCCC[C@H]1C(=O)N(C)[C@@H](CCCC)C(=O)N[C@@H](CC(C)C)C(=O)N[C@H](C(=O)NCC(N)=O)CSCC(=O)N[C@H]2Cc3ccc(cc3)OB(O)c3cc(F)c(F)cc3CNCC[C@@H]3NC(=O)[C@H](Cc4c[nH]c5ccccc45)NC(=O)[C@@H]4C[C@@H](O)CN4C(=O)[C@H](CC(C)C)NC(=O)[C@H](CNCc4cc(F)c(F)cc4B(O)OC(=O)Cn4cc(c5ccccc54)C[C@H](NC3=O)C(=O)N1C)NC(=O)[C@@H]1CCCN1C(=O)[C@H](CC(N)=O)NC(=O)[C@H](C)N(C)C2=O", "note": "[Example 1031]", "values": [
      {"measurement": "IC50", "value": 10, "unit": "nM"}
    ]}
  ]
}
